Data published in patent US10799555B2, “PD-1 peptide inhibitors” (Leidos, Inc., priority 2016, dated 2020).
Residues, ends and D or L forms follow the SMILES beside them.

Key:
[1] = biological target: soluble recombinant human PD-1 receptor (Homo sapiens, UniProt Q15116); assay: Clonal phage ELISA of phage display library clones; assay type: binding; conditions: for Clonal Phase ELISA coated signal: after fifth round of panning; for Clonal Phase ELISA uncoated signal: uncoated (background)
Text: The TriCo-20™ (TRICO-20™) and TriCo-16™ (TRICO-16™) Phage Display Peptide Libraries (Creative Biolabs, 45-1 Ramsey Road, Shirley, N.Y. 11967) were screened to identify binders of soluble recombinant human PD-1 receptor. After the fourth round of panning, obvious enrichment for specific binders was observed, and individual peptides were confirmed as weakly specific binders in a clonal phage ELISA. A fifth round of panning led to greater enrichment.

human PBMCs = assay type: cell-based; set-up: key: “x” indicates no effect; “−” indicates a possible low effect; “+” indicates some effect; “++” indicates a definite effect
mouse PD-1 = biological target: T1, mouse PD-1 (Mus musculus, UniProt Q02242); assay: BIACORE assay, mouse PD-1; assay type: binding; conditions: for Rmax / KA / Kd: ligand mouse PD-1 10,000 RU, 25° C.; for KA / Kd: steady state equilibrium; for binding / affinity towards mouse PD-1 (in words): BIACORE
T1 sequence (Q02242 25-288): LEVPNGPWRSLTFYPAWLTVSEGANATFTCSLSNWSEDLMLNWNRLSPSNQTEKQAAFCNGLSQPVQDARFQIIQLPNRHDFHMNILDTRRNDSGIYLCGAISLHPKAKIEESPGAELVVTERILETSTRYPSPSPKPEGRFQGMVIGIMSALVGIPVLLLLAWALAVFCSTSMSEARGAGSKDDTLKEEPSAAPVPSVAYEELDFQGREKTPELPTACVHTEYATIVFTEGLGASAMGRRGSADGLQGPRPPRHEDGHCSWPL
Experimental: (§1) BIACORE® assays were carried out using a BIACORE® T-200 at 25° C. The assay and regeneration buffers contained 10 mM HEPES (pH 7.4), 150 mM NaCl, 3 mM EDTA, and 0.05% P20. The immobilization buffer was 10 mM sodium acetate, pH 5.0. The flow rate used for immobilizing the ligand was 5 μl/min. The flow rate for kinetics analysis was 30 μl/min.
12,000 response units (RU) of human and 6000 RU of mouse PD-1 receptors were directly immobilized on flow cell 2 and flow cell 4 of the CMS chip by amine coupling method (EDC/NHS). The un-occupied sites were blocked with 1M ethanol amine. Scouting was performed at a single analyte concentration of 25 μM to confirm yes/no binding. Flow cell 1 was kept blank and used for reference subtraction. Binding of analyte to the ligand was monitored in real time.
Based on the scouting results, full kinetics were performed by immobilizing higher RU of the ligand to a new chip and analyte concentration at 25 μM, followed by serial dilution to 12.5, 6.25, 3.125, 1.562, 0.78 and 0 μM concentration or as indicated. Due to fast on rate and off rate, KD was determined by steady state equilibrium kinetics.
(§2) Chi square (χ2) analysis was carried out between the actual sensorgram and a sensorgram generated from the BIANALYSIS® software (black line) to determine the accuracy of the analysis. A χ2 value within 1-2 is considered significant (accurate) and below 1 is highly significant (highly accurate).

human PD-1 = human PD-1 (Homo sapiens, UniProt Q15116); assay: BIACORE assay, human PD-1; assay type: binding; conditions: for Rmax / KA / Kd: ligand human PD-1 10,000 RU, 25° C.; for KA / Kd: steady state equilibrium; for binding / affinity towards human PD-1 (in words): BIACORE
Sequence of human PD-1 (Q15116 25-288): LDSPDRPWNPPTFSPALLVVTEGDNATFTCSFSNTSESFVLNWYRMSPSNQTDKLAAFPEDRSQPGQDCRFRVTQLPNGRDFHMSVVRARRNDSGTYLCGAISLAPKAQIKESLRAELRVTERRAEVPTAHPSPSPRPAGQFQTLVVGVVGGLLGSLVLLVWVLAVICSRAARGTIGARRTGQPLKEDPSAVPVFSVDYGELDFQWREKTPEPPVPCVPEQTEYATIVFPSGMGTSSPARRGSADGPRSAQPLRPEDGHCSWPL
Experimental: as §1
[…] The un-occupied sites were blocked with 1M ethanol amine. Scouting was performed at a single analyte concentration of 25 μM to confirm yes/no binding. Flow cell 1 was kept blank and used for reference subtraction. Binding of analyte to the ligand was monitored in real time.
[…] Due to fast on rate and off rate, KD was determined by steady state equilibrium kinetics.
as §2

Sequence of soluble recombinant human PD-1 receptor (Q15116 25-170 limits assumed): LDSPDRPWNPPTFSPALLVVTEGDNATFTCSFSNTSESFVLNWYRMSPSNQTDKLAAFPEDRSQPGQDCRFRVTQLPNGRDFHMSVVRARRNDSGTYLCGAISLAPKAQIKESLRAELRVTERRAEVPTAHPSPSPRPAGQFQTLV

CC[C@H](C)[C@H](NC(=O)[C@H](Cc1c[nH]c2ccccc12)NC(=O)[C@H](CCC(=O)O)NC(=O)[C@H](Cc1c[nH]cn1)NC(=O)[C@H](CCC(=O)O)NC(=O)[C@H](Cc1c[nH]cn1)NC(=O)[C@@H]1CCCN1C(=O)[C@H](CCCNC(=N)N)NC(=O)[C@@H](NC(=O)[C@H](Cc1c[nH]cn1)NC(=O)[C@H](Cc1c[nH]cn1)NC(=O)[C@H](CC(N)=O)NC(=O)[C@H](Cc1c[nH]cn1)NC(=O)[C@H](Cc1ccccc1)NC(=O)[C@H](CO)NC(=O)[C@H](C)NC(=O)[C@@H]1CCCN1C(=O)[C@H](CC(C)C)NC(=O)[C@H](CC(N)=O)NC(=O)[C@@H](N)Cc1c[nH]c2ccccc12)[C@@H](C)CC)C(=O)N[C@@H](CCC(N)=O)C(=O)O [WQ20] (H-WNLPASFHNHHIRPHEHEWIQ-OH; N-terminus and C-terminus assumed)
Clonal Phase ELISA coated signal [1]: 0.275
Clonal Phase ELISA uncoated signal [1]: 0.115
IFNγ production (human PBMCs): ++
IL-2 production (human PBMCs): −
IL-4 production (human PBMCs): ++
IL-6 production (human PBMCs): ++
IL-10 production (human PBMCs): x
TNFα production (human PBMCs): ++
Rmax (mouse PD-1): 270 RU
KA (mouse PD-1): 1310 M⁻¹
Kd (mouse PD-1): 761 µM
Rmax (human PD-1): 84.7 RU
KA (human PD-1): 3280 M⁻¹
Kd (human PD-1): 305 µM

CC[C@H](C)[C@H](NC(=O)[C@H](CCCCN)NC(=O)[C@@H]1CCCN1C(=O)[C@H](CCSC)NC(=O)[C@@H]1CCCN1C(=O)[C@@H](NC(=O)[C@@H](NC(=O)[C@H](CCCNC(=N)N)NC(=O)[C@@H](NC(=O)[C@@H](N)CCC(N)=O)[C@@H](C)O)[C@@H](C)O)C(C)C)C(=O)N[C@@H](Cc1c[nH]cn1)C(=O)N[C@@H](Cc1c[nH]cn1)C(=O)N1CCC[C@H]1C(=O)N1CCC[C@H]1C(=O)N[C@@H](Cc1c[nH]c2ccccc12)C(=O)N[C@@H](CCC(N)=O)C(=O)N[C@@H](CC(N)=O)C(=O)N[C@H](C(=O)N[C@H](C(=O)N1CCC[C@H]1C(=O)O)C(C)C)C(C)C [QP20] (H-QTRTVPMPKIHHPPWQNVVP-OH; N-terminus and C-terminus assumed)
Clonal Phase ELISA coated signal [1]: 0.851
Clonal Phase ELISA uncoated signal [1]: 0.446
IFNγ production (human PBMCs): x
IL-2 production (human PBMCs): x
IL-4 production (human PBMCs): −
IL-6 production (human PBMCs): x
IL-10 production (human PBMCs): x
TNFα production (human PBMCs): x
binding / affinity towards mouse PD-1 (in words) (mouse PD-1): highest affinity
Rmax (mouse PD-1): 13.4 RU
KA (mouse PD-1): 18000 M⁻¹
Kd (mouse PD-1): 55.4 µM
Rmax (human PD-1): 3.83 RU
KA (human PD-1): 93600 M⁻¹
Kd (human PD-1): 10.7 µM

CSCC[C@H](NC(=O)CNC(=O)[C@@H](NC(=O)[C@H](Cc1c[nH]c2ccccc12)NC(=O)[C@H](Cc1c[nH]cn1)NC(=O)[C@H](CO)NC(=O)[C@H](CCCNC(=N)N)NC(=O)[C@@H](NC(=O)[C@H](CCC(N)=O)NC(=O)[C@H](Cc1ccc(O)cc1)NC(=O)[C@@H](NC(=O)[C@H](CCC(N)=O)NC(=O)[C@H](Cc1c[nH]cn1)NC(=O)[C@H](Cc1c[nH]cn1)NC(=O)[C@@H](N)Cc1c[nH]cn1)C(C)C)C(C)C)[C@@H](C)O)C(=O)N[C@@H](Cc1c[nH]cn1)C(=O)N[C@@H](CO)C(=O)NCC(=O)N[C@@H](Cc1c[nH]cn1)C(=O)N[C@@H](CC(=O)O)C(=O)O [HD20] (H-HHHQVYQVRSHWTGMHSGHD-OH; N-terminus and C-terminus assumed)
Clonal Phase ELISA coated signal [1]: 0.281
Clonal Phase ELISA uncoated signal [1]: 0.109
IFNγ production (human PBMCs): ++
IL-2 production (human PBMCs): −
IL-4 production (human PBMCs): x
IL-6 production (human PBMCs): ++
IL-10 production (human PBMCs): x
TNFα production (human PBMCs): ++
Rmax (mouse PD-1): 76 RU
KA (mouse PD-1): 4250 M⁻¹
Kd (mouse PD-1): 235 µM
binding / affinity towards human PD-1 (in words) (human PD-1): highest affinity
Rmax (human PD-1): 3.35 RU
KA (human PD-1): 318000 M⁻¹
Kd (human PD-1): 3.41 µM

Mouse PD-L1: mouse PD-L1 used as analyte on immobilized mouse PD-1 in BIACORE [reference compound]
Rmax (mouse PD-1): 259 RU
KA (mouse PD-1): 2.75e+06 M⁻¹

CSCC[C@H](NC(=O)[C@H](CCCCN)NC(=O)[C@H](Cc1ccccc1)NC(=O)[C@H](Cc1c[nH]cn1)NC(=O)[C@H](Cc1c[nH]cn1)NC(=O)[C@H](Cc1ccc(O)cc1)NC(=O)[C@H](CO)NC(=O)[C@@H](N)CO)C(=O)N1CCC[C@H]1C(=O)N[C@@H](CCC(=O)O)C(=O)N[C@@H](CC(C)C)C(=O)N[C@@H](Cc1c[nH]cn1)C(=O)N[C@@H](Cc1ccccc1)C(=O)NCC(=O)N[C@@H](CCCCN)C(=O)N[C@@H](CC(N)=O)C(=O)N[C@H](C(=O)N[C@@H](Cc1ccccc1)C(=O)N[C@@H](Cc1c[nH]cn1)C(=O)N[C@@H](CCC(N)=O)C(=O)O)[C@@H](C)O [SQ20] (H-SSYHHFKMPELHFGKNTFHQ-OH; N-terminus and C-terminus assumed)
Clonal Phase ELISA coated signal [1]: 0.284
Clonal Phase ELISA uncoated signal [1]: 0.159
IFNγ production (human PBMCs): ++
IL-2 production (human PBMCs): +
IL-4 production (human PBMCs): −
IL-6 production (human PBMCs): ++
IL-10 production (human PBMCs): +
TNFα production (human PBMCs): +
binding / affinity towards mouse PD-1 (in words) (mouse PD-1): highest affinity
Rmax (mouse PD-1): 12.8 RU
KA (mouse PD-1): 21400 M⁻¹
Kd (mouse PD-1): 46.8 µM
binding / affinity towards human PD-1 (in words) (human PD-1): highest affinity
Rmax (human PD-1): 4.05 RU
KA (human PD-1): 194000 M⁻¹
Kd (human PD-1): 5.16 µM
